Columns and labels:
[1] = system: hypercholesterolemia in Wistar rats; test: Model of hypercholesterolemia in rats (oral cholesterol loading); type: in vivo, rat
Description: The study was carried out on male Wistar rats weighing 200±20 g. Hyperlipidemia was induced by oral administration of cholesterol loading, oily cholesterol suspension:
olive oil (Acorsa, Spain)—5 ml/kg weigh of animals;
cholesterol (Sigma, USA)—1 g/kg weight;
sodium cholate (Sigma, USA)—100 mg/kg weight.
As a reference preparation, the preparation from the group of statines “Mevacor” (Lovastatine) manufactured by the firm Merck Sharp & Dohn was used at dose 40 mg/kg. Cholesterol suspension was administered daily in the morning for 10 days. The compounds tested (at dose 500 μg/kg) and the reference preparation (at dose 40 mg/kg) were administered to the animals togester with cholesterol suspension for 10 days. All the animals received a standard briquetted forage.
The animals were divided into the following groups:
“Control”—intact animals (n=5);
“Cholesterol”—rats that orally received cholesterol loading (n=10);
“Lovastatine”—rats that orally received cholesterol loading and Lovastatine (n=10);
“Compound IV”—rats that orally received cholesterol loading and the tested compound IV (n=10).
Blood was sampled at days 5, 8 and 10 of the experiment.
Statistical processing of the hypolipidemic action data of the tested substances was carried out with regard to the “Cholesterol” group (Table 13).
Experimental groups included:
1) “Cholesterol”—rats orally administered with oily cholesterol suspension for 10 days;
2) “Compound IV”—rats orally administered with oily cholesterol suspension and the tested compound N;
3) “Compound IV—1Na”—rats orally administered with oily cholesterol suspension and the tested mono-sodium salt of compound N;
4) “Compound IV—2Na”—rats orally administered with oily cholesterol suspension and the tested di-sodium salt of compound N;
5) “Compound V—1Na”—rats orally administered with oily cholesterol suspension and the tested mono-sodium salt of the compound V;
6) “Compound III—1Na”—rats orally administered with oily cholesterol suspension and the tested mono-sodium salt of the compound III;
7) “Compound II—1Na”—rats orally administered with oily cholesterol suspension and the tested mono-sodium salt of the compound II;
8) “Sim”—rats orally administered with oily cholesterol suspension and Simvastatine;
9) control—intact rats before beginning the test.
At day 10 of the test blood samples were taken following decapitation of the animals. The animals fasted for 12 hours prior to decapitation.
Blood serum total cholesterol, triglycerides and high density lipoprotein cholesterol (HDLC) were measured. Low and very low density lipoprotein cholesterol was calculated by the difference between total cholesterol and HDL cholesterol.
Blood serum total cholesterol and triglycerides were determined using the enzymatic methods.
Cholesterol level in high density lipoproteins (α-LP) was determined using the precipitation method of LDL and VLDL with phosphotungstic acid and magnesium ions.
Data in the tables are presented as a mean value±standard error. Significance of differences between the groups “cholesterol” and “preparation.” was assessed by the two-sampled Student's t-test.

[2] = system: antigen-induced bronchial spasm in sensitized guinea pigs; test: Systemic anaphylaxis in vivo: antigen-induced bronchial spasm in ovalbumin-sensitized conscious guinea pigs; parameters: species or system guinea pig
Excerpt: A bronchial spasm model in conscious guinea pigs actively sensitized by exposure to aerosol ovalbumin as an antigen was used [Kovaleva V. L. “Metodicheskiye ukazaniya po izucheniyu bronkholiticheskikh I protivovospalitel'nykh sredstv.//Rukovodstvo po experimental'nomy (doklinicheskomu) izucheniyu novykh pharmacologicheskikh veshchestv, Moscow. 2000. pp. 242-250].
Guinea pigs were sensitized by ovalbumin according to the method of Andersson [Anderson P. Antigen-induced bronchial anaphylaxis in actively sensitized guinea-pigs.//Allergy. 1980. Vol. 35. P. 63-71] and in 1-2 months following sensitization, bronchial spasm was induced by aerosol administration of albumin booster dose (3 mg/kg in 1 ml normal saline).
In test groups, guinea pigs were for three days administered with tested compounds at doses 10 μg/kg, 50 μg/kg, and 150 μg/kg, using a probe. In the other group of experiments, the tested compounds at dose 50 μg/kg (in 1 ml normal saline) were administered nasally (using a nebulizer) also once daily for three days. The control group was administered with normal saline. One hour post the last administration of substances, ovalbumin was administered by inhalation using a nebulizer, and intensity and duration (in seconds) of bronchial spasm reaction in animals was assessed.

[3] = system: allergic pneumonitis in guinea pigs; test: Model of allergic pneumonitis in guinea pigs (broncho-alveolar wash-off cytology); type: in vivo, guinea pig; details: 0.1% solution, inhalations daily for 6 days
Description: The model of allergic pneumonitis in guinea pigs was used.
Immunization of the animals was similar to that described in Example 7.
24 hours post the last ovalbumin administration broncho-alveolar wash-off was collected (through a cannula inserted into the trachea), and changes in bronchial mucosa was assessed using a complex of histological and cytological methods.
The compounds tested (0.1% solution) were daily administered in the form of inhalations using a nebulizing device for 6 days; at day 6 of administration, antigen (OA) challenge was performed.
Broncho-alveolar wash-off was obtained in rats and guinea pigs under hexenal anesthesia by double washing the lungs through the trachea with 10 ml normal saline. Viability of cells was determined in the test with tryptane blue. Absolute number of cells in 1 ml (cytosis) was determined in the broncho-alveolar wash-off liquid (BAW) using the Goryaev's chamber. In the smears of the BAW liquid precipitate obtained using centrifugation at 200 g for 10 minutes and then stained according to Romanovskcy-Gimza, endopulmonary cytogram was calculated (in percent) [Avtsyn A. P., Lukomskij G. I., Romanova L. K. et al. Endopul'monal'naya cytogramma.//Sov. Med. 1982. No 7. pp. 8-14].

[4] = system: allergic rhinitis in guinea pigs; test: Model of allergic rhinitis in guinea pigs (nasal wash-off cytology); type: in vivo, guinea pig; details: 0.1% solution, inhalations daily for 6 days
Description: The model of allergic rhinitis in guinea pigs was used.
Guinea pigs were immunized according to the certain scheme for 1.5-2 months (Hutson P. A., Church M. K. et al. 1988): the animals were first immunized by intraperitoneal administration of ovalbumin at dose 10 mg/kg at 7-day interval (twice), then ovalbumin solution was inhaled to the guinea pigs using the Pari nebulizer at increasing concentration beginning from 0.1% and reaching 1% at 4-day intervals between inhalations. The last ovalbumin dose was administered into the nasal passages using a micropipette. 24 hours post the last ovalbumin administration nasal washing was collected (through a system of special tubes) and changes in nasal mucosa was assessed using a complex of histological and cytological methods. The compounds tested (0.1% solution) were daily administered in the form of inhalations using nebulizing device for 6 days; at day 6 of administration, antigen (OA) challenge was performed. Nasal wash-off was obtained 24 hours post challenge.

[5] = day 5 of the experiment (Table 15)
[6] = day 8 of the experiment (Table 16)
[7] = day 10 of the experiment (Table 17)
[8] = dose 500 μg/kg, vs Cholesterol group
[9] = oral 10 days with cholesterol loading, tested compound 500 μg/kg, reference 40 mg/kg (Table 13)
[10] = by inhalation, 50 μg/kg, once daily for three days
[11] = intragastric, 10 μg/kg, three days
[12] = intragastric, 150 μg/kg, three days

SMILES: O=C(O)CCCC(=O)N[C@@H](Cc1c[nH]cn1)C(=O)O [Compound IV, N^α-glutaryl-L-histidine]
- Total cholesterol, HDL [1, 5]: 35.8 ± 1.2 mg/100 ml
- Total cholesterol, LDL + VLDL [1, 5]: 48.5 ± 4.5 mg/100 ml
- Triglycerides, Serum [1, 5]: 120.6 ± 8.9 mg/100 ml
- Total cholesterol, Serum ([1]; day 5 of the experiment (Table 15), oral with oily cholesterol suspension): 84.2 ± 3.9 mg/100 ml
- Total cholesterol, HDL [1, 6]: 35.9 ± 1.2 mg/100 ml
- Total cholesterol, LDL + VLDL [1, 6]: 67.3 ± 8.7 mg/100 ml
- Total cholesterol, Serum [1, 6]: 103.3 ± 8.1 mg/100 ml
- Triglycerides, Serum [1, 6]: 154.2 ± 11.4 mg/100 ml
- Total cholesterol, HDL [1, 7]: 36.5 ± 0.9 mg/100 ml
- Total cholesterol, LDL + VLDL [1, 7]: 58.7 ± 5.3 mg/100 ml
- Total cholesterol, Serum [1, 7]: 95.2 ± 5.4 mg/100 ml
- Triglycerides, Serum [1, 7]: 143.3 ± 8.9 mg/100 ml
- lowering LDL cholesterol [1, 8]: 29.8%
- lowering hepatic cholesterol [1, 8]: 22.7%
- lowering hepatic triglycerides [1, 8]: 19%
- lowering serum total cholesterol [1, 8]: 19.5%
- Total cholesterol, CHDL [1, 9]: 50.5 ± 1.3 mg/100 ml
- Total cholesterol, CLLD + CLVLD [1, 9]: 46.1 ± 0.9 mg/100 ml
- Total cholesterol, Liver [1, 9]: 2.78 ± 0.28 mg/g of tissue
- Total cholesterol, Serum [1, 9]: 96.6 ± 5.7 mg/100 ml
- Triglycerids, Liver [1, 9]: 5.53 ± 0.19 mg/g of tissue
- Triglycerids, Serum [1, 9]: 95.1 ± 7.9 mg/100 ml
- Duration of acute phase [2, 10]: 0 s
- Duration of sub-acute phase [2, 10]: 400 ± 25 s
- Duration of acute phase [2, 11]: 68.0 ± 54.7 s
- Total reaction time [2, 11]: 428.0 ± 75.0 s
- Duration of acute phase [2, 12]: 72.0 ± 42.1 s
- Total reaction time [2, 12]: 337.0 ± 78.5 s
- Absolute number of Macrophags in broncho-alveolar wash-off [3]: 640.1 ± 57.98 in 1 μl
- Cytosis (absolute number of cells in 1 μl) in broncho-alveolar wash-off [3]: 1331.3 ± 277.4 cells in 1 μl
- Absolute number of Macrophags in nasal wash-off [4]: 6.1 ± 0.75 in 1 μl
- Absolute number of Neutrophils in nasal wash-off [4]: 3.1 ± 1.02 in 1 μl
- Citogram of nasal wash-off: Lymphocytes [4]: 5.7 ± 1.54%
- Cytosis (absolute number of cells in 1 μl) in nasal wash-off ([4]; wash-off 24 hours post challenge): 43.7 ± 6.65°* cells in 1 μl

From patent US8318950B2, “N-acyl amino acid derivatives, a method for the preparation thereof, a pharmaceutical composition and use thereof as anti-allergic, anti-inflammatory and hypolipidemic agents” (Otkrytoe Aktsionernoe Obschestvo-Otechestvennye Lekarstva, priority 2005, dated 2012)
